Source: ChEMBL document CHEMBL3867448, “Targeted Isolation of Indolopyridoquinazoline Alkaloids from Conchocarpus fontanesianus Based on Molecular Networks” (2016)

How the values were obtained:
Candida albicans [1] = assay: Antifungal activity against Candida albicans DSY2621 by MTT assay; assay type: functional
Candida albicans [2] = assay: Antifungal activity against wild type Candida albicans CAF2-1 by MTT assay; assay type: functional

MIC (Candida albicans [1]) | MIC (Candida albicans [2]) | Compound
0.0006 µg | 0.0006 µg | Clc1ccc(COC(Cn2ccnc2)c2ccc(Cl)cc2Cl)c(Cl)c1 (centres undefined) [MICONAZOLE]
15 µg | – | COc1cccc2c3c(c(=O)[nH]c12)C=CC(C)(C)O3
15 µg | – | CC1(C)C=Cc2c(O)nc3ccccc3c2O1 [FLINDERSINE]
